Source: ChEMBL document CHEMBL3885881, “DrugMatrix”

Organism: Rattus norvegicus
Test: DrugMatrix - Regimen: Daily Repeat
Assay type: toxicity, organism-based, Sprague-Dawley
Design: regimen Daily Repeat, gender Male, age 6-8 weeks
Details: in vivo, iv, vehicle 100 % SALINE; for ABSOLUTE BASOPHIL / ABSOLUTE EOSINOPHIL / ABSOLUTE LYMPHOCYTE / ABSOLUTE MONOCYTE / ABSOLUTE SEGMENTED NEUTROPHIL / BASOPHIL / EOSINOPHIL / ERYTHROCYTE COUNT / HEMATOCRIT / HEMOGLOBIN / LEUKOCYTE COUNT / LYMPHOCYTE / MEAN CORPUSCULAR HEMOGLOBIN / MEAN CORPUSCULAR HEMOGLOBIN CONCENTRATION / MEAN CORPUSCULAR VOLUME / MONOCYTE / NEUTROPHIL / NUCLEATED RED BLOOD CELLS / PLATELET COUNT: tissue Blood; for ALANINE AMINOTRANSFERASE / ALBUMIN / ALKALINE PHOSPHATASE / ASPARTATE AMINOTRANSFERASE / BLOOD UREA NITROGEN / CARBON DIOXIDE / CHLORIDE / CHOLESTEROL / CREATINE PHOSPHOKINASE / CREATININE / GLUCOSE / LACTATE DEHYDROGENASE / LIPASE / PHOSPHORUS / POTASSIUM / SODIUM / TOTAL BILIRUBIN / TOTAL PROTEIN: tissue Plasma
[1] = 1 mg/kg, 72 h, dose level Low, time 3 day
[2] = 1 mg/kg, 120 h, dose level Low, time 5 day
[3] = 76 mg/kg, 72 h, dose level High, time 3 day
[4] = 76 mg/kg, 120 h, dose level High, time 5 day

## C=CCN1CC[C@]23c4c5ccc(O)c4O[C@H]2C(=O)CC[C@@]3(O)[C@H]1C5 [NALOXONE]
[1]
  ABSOLUTE BASOPHIL: 0 CELLS/uL
  ABSOLUTE EOSINOPHIL: 394 CELLS/uL
  ABSOLUTE LYMPHOCYTE: 14212 CELLS/uL
  ABSOLUTE MONOCYTE: 229.67 CELLS/uL
  ABSOLUTE SEGMENTED NEUTROPHIL: 1597.67 CELLS/uL
  BASOPHIL: 0%
  EOSINOPHIL: 2.33%
  ERYTHROCYTE COUNT: 5.29 x10E6/uL
  HEMATOCRIT: 33.37%
  HEMOGLOBIN: 12.43 G/DL
  LEUKOCYTE COUNT: 16.43 x10E3/uL
  LYMPHOCYTE: 86.33%
  MEAN CORPUSCULAR HEMOGLOBIN: 23.5 pg
  MEAN CORPUSCULAR HEMOGLOBIN CONCENTRATION: 37.23 G/DL
  MEAN CORPUSCULAR VOLUME: 63.13 fL
  MONOCYTE: 1.33%
  NEUTROPHIL: 10%
  NUCLEATED RED BLOOD CELLS: 0 /100WBC
  PLATELET COUNT: 1087.33 x10E3/uL
  ALANINE AMINOTRANSFERASE: 52 u/L
  ALBUMIN: 4.2 G/DL
  ALKALINE PHOSPHATASE: 368.67 u/L
  ASPARTATE AMINOTRANSFERASE: 96 u/L
  BLOOD UREA NITROGEN: 16.33 mg/dL
  CARBON DIOXIDE: 26.67 mmol/L
  CHLORIDE: 103.67 MEQ/L
  CHOLESTEROL: 70.67 mg/dL
  CREATINE PHOSPHOKINASE: 678.67 u/L
  CREATININE: 0.2 mg/dL
  GLUCOSE: 178.33 mg/dL
  LACTATE DEHYDROGENASE: 116.67 u/L
  LIPASE: 9.67 u/L
  PHOSPHORUS: 12.63 mg/dL
  POTASSIUM: 6.32 MEQ/L
  SODIUM: 144.23 MEQ/L
  TOTAL BILIRUBIN: 0.2 mg/dL
  TOTAL PROTEIN: 5.9 G/DL
[2]
  ABSOLUTE BASOPHIL: 0 CELLS/uL
  ABSOLUTE EOSINOPHIL: 66.67 CELLS/uL
  ABSOLUTE LYMPHOCYTE: 9301.33 CELLS/uL
  ABSOLUTE MONOCYTE: 105.67 CELLS/uL
  ABSOLUTE SEGMENTED NEUTROPHIL: 1026.33 CELLS/uL
  BASOPHIL: 0%
  EOSINOPHIL: 0.67%
  ERYTHROCYTE COUNT: 5.74 x10E6/uL
  HEMATOCRIT: 35.87%
  HEMOGLOBIN: 13.53 G/DL
  LEUKOCYTE COUNT: 10.5 x10E3/uL
  LYMPHOCYTE: 88.67%
  MEAN CORPUSCULAR HEMOGLOBIN: 23.57 pg
  MEAN CORPUSCULAR HEMOGLOBIN CONCENTRATION: 37.73 G/DL
  MEAN CORPUSCULAR VOLUME: 62.5 fL
  MONOCYTE: 1%
  NEUTROPHIL: 9.67%
  NUCLEATED RED BLOOD CELLS: 0.33 /100WBC
  PLATELET COUNT: 1255.33 x10E3/uL
  ALANINE AMINOTRANSFERASE: 45.67 u/L
  ALBUMIN: 4.1 G/DL
  ALKALINE PHOSPHATASE: 363 u/L
  ASPARTATE AMINOTRANSFERASE: 88.67 u/L
  BLOOD UREA NITROGEN: 15.67 mg/dL
  CARBON DIOXIDE: 25 mmol/L
  CHLORIDE: 106 MEQ/L
  CHOLESTEROL: 63.67 mg/dL
  CREATINE PHOSPHOKINASE: 400.33 u/L
  CREATININE: 0.18 mg/dL
  GLUCOSE: 177.67 mg/dL
  LACTATE DEHYDROGENASE: 358 u/L
  LIPASE: 8.33 u/L
  PHOSPHORUS: 12.67 mg/dL
  POTASSIUM: 6.28 MEQ/L
  SODIUM: 144.83 MEQ/L
  TOTAL BILIRUBIN: 0.23 mg/dL
  TOTAL PROTEIN: 6.2 G/DL
[3]
  ABSOLUTE BASOPHIL: 0 CELLS/uL
  ABSOLUTE EOSINOPHIL: 219 CELLS/uL
  ABSOLUTE LYMPHOCYTE: 13357.67 CELLS/uL
  ABSOLUTE MONOCYTE: 239.33 CELLS/uL
  ABSOLUTE SEGMENTED NEUTROPHIL: 1117.33 CELLS/uL
  BASOPHIL: 0%
  EOSINOPHIL: 1.33%
  ERYTHROCYTE COUNT: 5.83 x10E6/uL
  HEMATOCRIT: 36.57%
  HEMOGLOBIN: 14.13 G/DL
  LEUKOCYTE COUNT: 14.93 x10E3/uL
  LYMPHOCYTE: 89.67%
  MEAN CORPUSCULAR HEMOGLOBIN: 24.23 pg
  MEAN CORPUSCULAR HEMOGLOBIN CONCENTRATION: 38.67 G/DL
  MEAN CORPUSCULAR VOLUME: 62.73 fL
  MONOCYTE: 1.67%
  NEUTROPHIL: 7.33%
  NUCLEATED RED BLOOD CELLS: 0 /100WBC
  PLATELET COUNT: 1424 x10E3/uL
  ALANINE AMINOTRANSFERASE: 46.67 u/L
  ALBUMIN: 4.23 G/DL
  ALKALINE PHOSPHATASE: 304.67 u/L
  ASPARTATE AMINOTRANSFERASE: 92.33 u/L
  BLOOD UREA NITROGEN: 15.67 mg/dL
  CARBON DIOXIDE: 24.33 mmol/L
  CHLORIDE: 110.67 MEQ/L
  CHOLESTEROL: 46 mg/dL
  CREATINE PHOSPHOKINASE: 383.33 u/L
  CREATININE: 0.12 mg/dL
  GLUCOSE: 104 mg/dL
  LACTATE DEHYDROGENASE: 123 u/L
  LIPASE: 7.67 u/L
  PHOSPHORUS: 14.33 mg/dL
  POTASSIUM: 5.64 MEQ/L
  SODIUM: 148.07 MEQ/L
  TOTAL BILIRUBIN: 0.1 mg/dL
  TOTAL PROTEIN: 6.3 G/DL
[4]
  ABSOLUTE BASOPHIL: 0 CELLS/uL
  ABSOLUTE EOSINOPHIL: 118.67 CELLS/uL
  ABSOLUTE LYMPHOCYTE: 15030.67 CELLS/uL
  ABSOLUTE MONOCYTE: 170.67 CELLS/uL
  ABSOLUTE SEGMENTED NEUTROPHIL: 1746.67 CELLS/uL
  BASOPHIL: 0%
  EOSINOPHIL: 0.67%
  ERYTHROCYTE COUNT: 5.72 x10E6/uL
  HEMATOCRIT: 35.6%
  HEMOGLOBIN: 13.43 G/DL
  LEUKOCYTE COUNT: 17.07 x10E3/uL
  LYMPHOCYTE: 88%
  MEAN CORPUSCULAR HEMOGLOBIN: 23.53 pg
  MEAN CORPUSCULAR HEMOGLOBIN CONCENTRATION: 37.77 G/DL
  MEAN CORPUSCULAR VOLUME: 62.37 fL
  MONOCYTE: 1%
  NEUTROPHIL: 10.33%
  NUCLEATED RED BLOOD CELLS: 0 /100WBC
  PLATELET COUNT: 1344.67 x10E3/uL
  ALANINE AMINOTRANSFERASE: 49.67 u/L
  ALBUMIN: 4.07 G/DL
  ALKALINE PHOSPHATASE: 305 u/L
  ASPARTATE AMINOTRANSFERASE: 80.33 u/L
  BLOOD UREA NITROGEN: 13.67 mg/dL
  CARBON DIOXIDE: 26.33 mmol/L
  CHLORIDE: 105 MEQ/L
  CHOLESTEROL: 52.33 mg/dL
  CREATINE PHOSPHOKINASE: 250.33 u/L
  CREATININE: 0.19 mg/dL
  GLUCOSE: 172.67 mg/dL
  LACTATE DEHYDROGENASE: 79 u/L
  LIPASE: 8 u/L
  PHOSPHORUS: 12.5 mg/dL
  POTASSIUM: 6.34 MEQ/L
  SODIUM: 144.67 MEQ/L
  TOTAL BILIRUBIN: 0.13 mg/dL
  TOTAL PROTEIN: 6.03 G/DL
